Measurements as given in ChEMBL document CHEMBL4804286, “3-amino-4-(4-(4 (dimethylcarbamoyl) phenyl)-1,4-diazepan-1-yl) thieno [2,3-b] pyridine-2-carboxamide for use in cancer therapy and formulations comprising the same” (2020).
Values joined by “and” are separate entries in the source; they are usually repeats but may differ in a detail not shown here. Equal values may be shown once. Active and inactive are the calls of the source. No cut-off for these calls is given here.

Key:
[1] = molecular target: Non-receptor tyrosine-protein kinase TYK2 (Homo sapiens) (UniProt P29597); assay: Inhibition of human TYK2 JH2 pseudokinase domain assessed as percent of control at 2000 nM by KINOMEscan assay relative to control; parameters: scale not given: the % may be the effect or the level left
[2] = molecular target: Dual specificity protein kinase TTK (Homo sapiens) (UniProt P33981); assay: Inhibition of human TTK assessed as percent of control at 2000 nM by KINOMEscan assay relative to control; parameters: scale not given: the % may be the effect or the level left
[3] = molecular target: Serine/threonine-protein kinase 33 (Homo sapiens) (UniProt Q9BYT3); assay: Inhibition of human STK33 assessed as percent of control at 2000 nM by KINOMEscan assay relative to control; parameters: scale not given: the % may be the effect or the level left
[4] = molecular target: Casein kinase I isoform gamma-2 (Homo sapiens) (UniProt P78368); assay: Inhibition of human CSNK1G2 assessed as percent of control at 2000 nM by KINOMEscan assay relative to control; parameters: scale not given: the % may be the effect or the level left
[5] = molecular target: Serine/threonine-protein kinase Sgk1 (Homo sapiens) (UniProt O00141); assay: Inhibition of human SGK assessed as percent of control at 2000 nM by KINOMEscan assay relative to control; parameters: scale not given: the % may be the effect or the level left
[6] = molecular target: TGF-beta receptor type-2 (Homo sapiens) (UniProt P37173); assay: Inhibition of human TGFBR2 assessed as percent of control at 2000 nM by KINOMEscan assay relative to control; parameters: scale not given: the % may be the effect or the level left
[7] = molecular target: Serine/threonine-protein kinase 35 (Homo sapiens) (UniProt Q8TDR2); assay: Inhibition of human STK35 assessed as percent of control at 2000 nM by KINOMEscan assay relative to control; parameters: scale not given: the % may be the effect or the level left
[8] = molecular target: Phosphorylase b kinase gamma catalytic chain, liver/testis isoform (Homo sapiens) (UniProt P15735); assay: Inhibition of human PHKG2 assessed as percent of control at 2000 nM by KINOMEscan assay relative to control; parameters: scale not given: the % may be the effect or the level left
[9] = molecular target: Dual specificity mitogen-activated protein kinase kinase 6 (Homo sapiens) (UniProt P52564); assay: Inhibition of human MEK6 assessed as percent of control at 2000 nM by KINOMEscan assay relative to control; parameters: scale not given: the % may be the effect or the level left
[10] = molecular target: Mitogen-activated protein kinase kinase kinase 5 (Homo sapiens) (UniProt Q99683); assay: Inhibition of human ASK1 assessed as percent of control at 2000 nM by KINOMEscan assay relative to control; parameters: scale not given: the % may be the effect or the level left
[11] = molecular target: Cyclin-dependent kinase 2 homolog (Plasmodium falciparum (isolate K1 / Thailand)) (UniProt Q07785); assay: Inhibition of Plasmodium falciparum PFPK5 assessed as percent of control at 2000 nM by KINOMEscan assay relative to control; parameters: scale not given: the % may be the effect or the level left
[12] = molecular target: Serine/threonine-protein kinase STK11 (Homo sapiens) (UniProt Q15831); assay: Inhibition of human LKB1 assessed as percent of control at 2000 nM by KINOMEscan assay relative to control; parameters: scale not given: the % may be the effect or the level left
[13] = molecular target: Serine/threonine-protein kinase DCLK1 (Homo sapiens) (UniProt O15075); assay: Inhibition of human DCAMKL1 assessed as percent of control at 2000 nM by KINOMEscan assay relative to control; parameters: scale not given: the % may be the effect or the level left
[14] = molecular target: Serine/threonine-protein kinase/endoribonuclease IRE1 (Homo sapiens) (UniProt O75460); assay: Inhibition of human ERN1 assessed as percent of control at 2000 nM by KINOMEscan assay relative to control; parameters: scale not given: the % may be the effect or the level left
[15] = tested on: Epidermal growth factor receptor (Homo sapiens), P00533 [L858R]; assay: Inhibition of human EGFR L858R mutant assessed as percent of control at 2000 nM by KINOMEscan assay relative to control; parameters: scale not given: the % may be the effect or the level left
[16] = molecular target: Serine/threonine-protein kinase PAK 6 (Homo sapiens) (UniProt Q9NQU5); assay: Inhibition of human PAK6 assessed as percent of control at 2000 nM by KINOMEscan assay relative to control; parameters: scale not given: the % may be the effect or the level left
[17] = molecular target: Cyclin-dependent kinase 15 (Homo sapiens) (UniProt Q96Q40); assay: Inhibition of human PFTAIRE2 assessed as percent of control at 2000 nM by KINOMEscan assay relative to control; parameters: scale not given: the % may be the effect or the level left
[18] = molecular target: Mitogen-activated protein kinase kinase kinase 12 (Homo sapiens) (UniProt Q12852); assay: Inhibition of human DLK assessed as percent of control at 2000 nM by KINOMEscan assay relative to control; parameters: scale not given: the % may be the effect or the level left
[19] = molecular target: Cyclin-dependent kinase 13 (Homo sapiens) (UniProt Q14004); assay: Inhibition of human CDC2L5 assessed as percent of control at 2000 nM by KINOMEscan assay relative to control; parameters: scale not given: the % may be the effect or the level left
[20] = molecular target: Calcium/calmodulin-dependent protein kinase type II subunit gamma (Homo sapiens) (UniProt Q13555); assay: Inhibition of human CAMK2G assessed as percent of control at 2000 nM by KINOMEscan assay relative to control; parameters: scale not given: the % may be the effect or the level left
[21] = tested on: Myc-CaP; assay: Antitumor activity against murine castration-resistant Myc-CaP cells xenografted in male FVB mouse assessed as suppression of tumor weight; type: functional
[22] = molecular target: Mitogen-activated protein kinase kinase kinase 1 (Homo sapiens) (UniProt Q13233); assay: Inhibition of human MAP3K1 assessed as percent of control at 2000 nM by KINOMEscan assay relative to control; parameters: scale not given: the % may be the effect or the level left
[23] = molecular target: Ribosomal protein S6 kinase alpha-2 (Homo sapiens) (UniProt Q15349); assay: Inhibition of human N-terminal RSK3 kinase domain 1 assessed as percent of control at 2000 nM by KINOMEscan assay relative to control; parameters: scale not given: the % may be the effect or the level left
[24] = molecular target: Tyrosine-protein kinase receptor TYRO3 (Homo sapiens) (UniProt Q06418); assay: Inhibition of human TYRO3 assessed as percent of control at 2000 nM by KINOMEscan assay relative to control; parameters: scale not given: the % may be the effect or the level left
[25] = molecular target: Casein kinase I isoform delta (Homo sapiens) (UniProt P48730); details: INHIBITOR, dose 2000.0 nM
Description: Inhibition of human CSNK1D at 2000 nM by KINOMEscan assay

[26] = tested on: CWR22R; assay: Antitumor activity against human 22Rv1 cells expressing AR-V7 xenografted in male nude mouse assessed as suppression of tumor growth at 25 mg/kg, administered twice a day for 40 days; type: functional, organism-based
[27] = molecular target: Cyclin-dependent kinase 4 (Homo sapiens) (UniProt P11802); assay: Inhibition of human CDK4 assessed as percent of control at 2000 nM by KINOMEscan assay relative to control; parameters: scale not given: the % may be the effect or the level left
[28] = molecular target: Cytoplasmic tyrosine-protein kinase BMX (Homo sapiens) (UniProt P51813); assay: Inhibition of human BMX assessed as percent of control at 2000 nM by KINOMEscan assay relative to control; parameters: scale not given: the % may be the effect or the level left
[29] = tested on: Receptor-type tyrosine-protein kinase FLT3 (Homo sapiens), P36888 [N841I]; assay: Inhibition of human FLT3 N841I mutant assessed as percent of control at 2000 nM by KINOMEscan assay relative to control; parameters: scale not given: the % may be the effect or the level left
[30] = molecular target: Serine/threonine-protein kinase Nek7 (Homo sapiens) (UniProt Q8TDX7); assay: Inhibition of human NEK7 assessed as percent of control at 2000 nM by KINOMEscan assay relative to control; parameters: scale not given: the % may be the effect or the level left
[31] = molecular target: Transient receptor potential cation channel subfamily M member 6 (Homo sapiens) (UniProt Q9BX84); assay: Inhibition of human TRPM6 assessed as percent of control at 2000 nM by KINOMEscan assay relative to control; parameters: scale not given: the % may be the effect or the level left

Calcium/calmodulin-dependent protein kinase type II subunit gamma (Homo sapiens), sequence (Q13555 whole entry): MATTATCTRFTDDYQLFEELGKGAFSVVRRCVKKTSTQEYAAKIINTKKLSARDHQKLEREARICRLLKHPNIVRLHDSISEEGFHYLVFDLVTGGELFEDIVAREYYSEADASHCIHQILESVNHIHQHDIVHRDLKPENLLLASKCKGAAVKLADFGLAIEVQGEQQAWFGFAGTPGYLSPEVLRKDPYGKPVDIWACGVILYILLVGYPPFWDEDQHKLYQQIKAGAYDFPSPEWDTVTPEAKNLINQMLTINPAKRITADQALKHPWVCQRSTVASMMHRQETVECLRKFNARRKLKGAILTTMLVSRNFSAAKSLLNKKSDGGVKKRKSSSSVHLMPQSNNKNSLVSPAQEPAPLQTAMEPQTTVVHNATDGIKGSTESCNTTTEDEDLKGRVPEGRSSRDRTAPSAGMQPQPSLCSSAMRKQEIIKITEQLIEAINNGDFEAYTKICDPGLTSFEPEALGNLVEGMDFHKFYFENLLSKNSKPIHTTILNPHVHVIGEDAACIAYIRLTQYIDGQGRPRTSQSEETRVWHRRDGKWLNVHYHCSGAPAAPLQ
Dual specificity protein kinase TTK (Homo sapiens), sequence (P33981 whole entry): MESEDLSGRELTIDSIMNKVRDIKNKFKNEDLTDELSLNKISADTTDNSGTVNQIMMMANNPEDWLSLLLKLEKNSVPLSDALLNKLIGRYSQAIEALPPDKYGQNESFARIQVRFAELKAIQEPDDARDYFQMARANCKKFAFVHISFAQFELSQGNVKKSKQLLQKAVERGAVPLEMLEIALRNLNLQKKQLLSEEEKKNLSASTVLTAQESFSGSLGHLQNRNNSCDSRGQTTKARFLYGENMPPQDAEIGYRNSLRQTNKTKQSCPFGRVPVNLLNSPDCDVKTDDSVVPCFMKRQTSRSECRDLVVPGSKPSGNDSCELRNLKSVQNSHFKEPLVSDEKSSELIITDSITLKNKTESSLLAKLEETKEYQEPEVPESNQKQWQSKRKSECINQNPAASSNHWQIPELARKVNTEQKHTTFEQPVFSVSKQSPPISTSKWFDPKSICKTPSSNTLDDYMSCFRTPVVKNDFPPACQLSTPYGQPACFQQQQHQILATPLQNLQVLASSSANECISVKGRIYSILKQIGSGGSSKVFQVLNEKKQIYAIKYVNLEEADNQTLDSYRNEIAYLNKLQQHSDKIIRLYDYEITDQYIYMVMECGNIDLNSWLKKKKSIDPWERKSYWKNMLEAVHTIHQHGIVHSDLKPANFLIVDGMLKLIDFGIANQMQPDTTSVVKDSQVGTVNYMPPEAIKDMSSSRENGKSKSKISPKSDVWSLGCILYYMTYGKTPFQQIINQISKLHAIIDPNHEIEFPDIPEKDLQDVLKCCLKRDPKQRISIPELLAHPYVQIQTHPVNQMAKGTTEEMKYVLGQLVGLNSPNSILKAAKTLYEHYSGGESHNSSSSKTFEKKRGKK
Casein kinase I isoform gamma-2 (Homo sapiens), sequence (P78368 whole entry, looked up, canonical isoform): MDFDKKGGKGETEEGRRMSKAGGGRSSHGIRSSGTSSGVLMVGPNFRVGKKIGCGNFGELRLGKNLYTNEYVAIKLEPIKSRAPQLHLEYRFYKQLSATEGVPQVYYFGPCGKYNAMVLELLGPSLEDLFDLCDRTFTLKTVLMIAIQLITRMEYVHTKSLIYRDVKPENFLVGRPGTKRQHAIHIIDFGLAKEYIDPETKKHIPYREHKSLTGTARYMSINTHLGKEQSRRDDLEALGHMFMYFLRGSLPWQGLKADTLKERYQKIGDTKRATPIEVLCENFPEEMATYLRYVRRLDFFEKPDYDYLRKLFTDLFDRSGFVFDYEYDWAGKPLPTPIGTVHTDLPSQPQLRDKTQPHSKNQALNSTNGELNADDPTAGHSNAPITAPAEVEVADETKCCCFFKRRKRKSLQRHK
Ribosomal protein S6 kinase alpha-2 (Homo sapiens), sequence (Q15349 whole entry, the tested form may be a part): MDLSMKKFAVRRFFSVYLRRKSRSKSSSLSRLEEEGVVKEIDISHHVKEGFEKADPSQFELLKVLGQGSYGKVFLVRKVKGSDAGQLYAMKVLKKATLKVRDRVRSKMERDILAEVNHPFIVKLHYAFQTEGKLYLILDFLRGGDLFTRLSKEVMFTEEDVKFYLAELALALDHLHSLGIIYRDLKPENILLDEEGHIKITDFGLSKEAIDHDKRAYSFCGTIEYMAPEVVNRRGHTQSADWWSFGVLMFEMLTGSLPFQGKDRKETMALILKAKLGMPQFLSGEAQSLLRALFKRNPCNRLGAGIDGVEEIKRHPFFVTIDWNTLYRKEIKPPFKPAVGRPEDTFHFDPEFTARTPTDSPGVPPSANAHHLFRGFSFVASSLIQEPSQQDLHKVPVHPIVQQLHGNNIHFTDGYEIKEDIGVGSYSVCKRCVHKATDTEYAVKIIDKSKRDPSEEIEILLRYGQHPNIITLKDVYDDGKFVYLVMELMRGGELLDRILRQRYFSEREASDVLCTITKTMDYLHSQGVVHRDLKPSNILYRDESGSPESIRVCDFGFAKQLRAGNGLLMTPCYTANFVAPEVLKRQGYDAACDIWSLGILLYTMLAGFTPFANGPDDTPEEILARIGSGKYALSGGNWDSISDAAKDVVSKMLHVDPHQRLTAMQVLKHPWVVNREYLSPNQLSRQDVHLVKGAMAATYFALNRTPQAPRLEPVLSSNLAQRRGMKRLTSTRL
Cyclin-dependent kinase 2 homolog (Plasmodium falciparum (isolate K1 / Thailand)), sequence (Q07785 whole entry): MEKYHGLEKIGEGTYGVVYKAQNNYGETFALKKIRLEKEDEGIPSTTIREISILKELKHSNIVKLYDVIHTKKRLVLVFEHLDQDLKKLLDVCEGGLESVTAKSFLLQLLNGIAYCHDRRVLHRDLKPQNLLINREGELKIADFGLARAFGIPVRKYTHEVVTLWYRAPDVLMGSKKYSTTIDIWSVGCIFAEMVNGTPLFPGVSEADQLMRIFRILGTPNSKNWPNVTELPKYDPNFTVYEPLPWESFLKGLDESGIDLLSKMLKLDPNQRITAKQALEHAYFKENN
Serine/threonine-protein kinase 33 (Homo sapiens), sequence (Q9BYT3 whole entry, looked up, canonical isoform): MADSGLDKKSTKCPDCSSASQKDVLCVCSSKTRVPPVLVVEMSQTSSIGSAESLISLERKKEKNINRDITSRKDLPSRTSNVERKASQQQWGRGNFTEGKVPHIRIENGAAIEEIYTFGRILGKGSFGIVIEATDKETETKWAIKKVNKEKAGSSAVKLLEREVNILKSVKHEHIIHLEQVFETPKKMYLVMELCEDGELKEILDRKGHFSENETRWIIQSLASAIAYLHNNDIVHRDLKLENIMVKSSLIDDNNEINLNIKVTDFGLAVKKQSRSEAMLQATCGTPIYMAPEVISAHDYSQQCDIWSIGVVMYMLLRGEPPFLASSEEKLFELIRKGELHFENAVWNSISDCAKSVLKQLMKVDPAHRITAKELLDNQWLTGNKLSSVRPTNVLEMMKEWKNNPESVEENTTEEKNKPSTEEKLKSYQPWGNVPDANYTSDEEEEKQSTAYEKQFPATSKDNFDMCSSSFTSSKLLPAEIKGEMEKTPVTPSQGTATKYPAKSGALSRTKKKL
Serine/threonine-protein kinase/endoribonuclease IRE1 (Homo sapiens), sequence (O75460 19-977 limits assumed): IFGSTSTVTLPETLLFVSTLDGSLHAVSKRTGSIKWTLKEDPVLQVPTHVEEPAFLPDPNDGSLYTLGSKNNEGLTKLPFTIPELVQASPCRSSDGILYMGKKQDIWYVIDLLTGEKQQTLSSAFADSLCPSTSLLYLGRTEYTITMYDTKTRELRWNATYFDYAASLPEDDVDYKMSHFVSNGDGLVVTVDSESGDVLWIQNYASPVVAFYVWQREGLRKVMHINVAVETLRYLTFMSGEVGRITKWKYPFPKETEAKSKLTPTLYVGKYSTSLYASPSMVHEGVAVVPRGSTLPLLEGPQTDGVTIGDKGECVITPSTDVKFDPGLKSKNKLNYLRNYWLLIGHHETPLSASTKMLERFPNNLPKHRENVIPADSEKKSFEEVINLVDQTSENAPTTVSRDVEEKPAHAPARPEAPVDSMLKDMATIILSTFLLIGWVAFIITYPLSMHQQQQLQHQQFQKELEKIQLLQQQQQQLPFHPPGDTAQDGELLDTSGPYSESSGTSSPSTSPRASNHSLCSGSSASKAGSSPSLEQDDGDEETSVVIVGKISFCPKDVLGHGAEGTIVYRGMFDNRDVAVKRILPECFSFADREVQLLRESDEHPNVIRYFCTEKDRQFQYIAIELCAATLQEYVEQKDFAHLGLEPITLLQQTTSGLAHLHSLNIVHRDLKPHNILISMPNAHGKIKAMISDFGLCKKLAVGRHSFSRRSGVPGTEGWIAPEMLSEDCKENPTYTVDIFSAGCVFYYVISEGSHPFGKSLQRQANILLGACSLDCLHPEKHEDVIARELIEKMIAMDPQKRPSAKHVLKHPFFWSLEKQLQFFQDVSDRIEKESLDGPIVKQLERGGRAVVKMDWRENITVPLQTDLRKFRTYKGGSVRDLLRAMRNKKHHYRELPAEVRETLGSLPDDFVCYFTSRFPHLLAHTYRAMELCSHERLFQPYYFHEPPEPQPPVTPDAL
Phosphorylase b kinase gamma catalytic chain, liver/testis isoform (Homo sapiens), sequence (P15735 whole entry, canonical isoform): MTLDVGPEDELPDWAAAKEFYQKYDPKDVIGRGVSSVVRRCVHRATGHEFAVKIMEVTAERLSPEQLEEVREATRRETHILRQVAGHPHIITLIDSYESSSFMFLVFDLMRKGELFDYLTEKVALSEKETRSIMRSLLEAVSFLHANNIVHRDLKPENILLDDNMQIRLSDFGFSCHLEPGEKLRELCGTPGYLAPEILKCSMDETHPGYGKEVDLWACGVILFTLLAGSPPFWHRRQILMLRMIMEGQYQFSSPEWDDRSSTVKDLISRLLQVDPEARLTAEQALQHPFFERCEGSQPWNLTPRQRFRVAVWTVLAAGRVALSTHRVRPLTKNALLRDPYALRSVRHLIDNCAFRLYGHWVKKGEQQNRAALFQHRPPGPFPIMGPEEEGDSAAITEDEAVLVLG

CN(C)C(=O)c1ccc(N2CCCN(c3ccnc4sc(C(N)=O)c(N)c34)CC2)cc1
Activity [1]: 73% and 59%
Activity [2]: 83% and 80%
Activity [3]: 100%
Activity [4]: 77% and 69%
Activity [5]: 86% and 83%
Activity [6]: 100%
Activity [7]: 87% and 93%
Activity [8]: 86% and 83%
Activity [9]: 100% and 96%
Activity [10]: 100%
Activity [11]: 68% and 67%
Activity [12]: 100% and 87%
Activity [13]: 100% and 89%
Activity [14]: 100% and 80%
Activity [15]: 99% and 93%
Activity [16]: 82% and 99%
Activity [17]: 100% and 80%
Activity [18]: 93% and 89%
Activity [19]: 71% and 80%
Activity [20]: 100%
Activity [21]: Active
Activity [22]: 84% and 90%
Activity [23]: 99% and 77%
Activity [24]: 100%
inhibition [25]: > 65%
Activity [26]: Active
Activity [27]: 73% and 71%
Activity [28]: 93% and 100%
Activity [29]: 90% and 86%
Activity [30]: 100% and 86%
Activity [31]: 100% and 80%
